Results from patent publication US7893067B2, “Cysteine protease inhibitors” (Medivir AB, priority 2007, dated 2011).
Where two headings read alike, the source gives them in different places.

Legend:
[1] = target: T1, human recombinant cathepsin K (Homo sapiens, UniProt P43235); assay: Determination of cathepsin K proteolytic catalytic activity (Ki); type: biochemical
T1 construct: made in house; host or cells: not fixed: E coli, Pichia or Baculovirus systems named as options
T1 sequence (P43235 115-329): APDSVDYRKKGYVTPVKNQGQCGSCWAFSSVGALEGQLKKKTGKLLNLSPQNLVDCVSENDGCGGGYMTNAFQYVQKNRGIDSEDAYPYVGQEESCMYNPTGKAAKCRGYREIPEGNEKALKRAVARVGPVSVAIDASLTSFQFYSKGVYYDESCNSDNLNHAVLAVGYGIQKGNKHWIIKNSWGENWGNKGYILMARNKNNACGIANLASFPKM
Description: Convenient assays for cathepsin K are carried out using human recombinant enzyme, such as that described in PDB.
The recombinant cathepsin K can be expressed in a variety of commercially available expression systems including E coli, Pichia and Baculovirus systems. The purified enzyme is activated by removal of the prosequence by conventional methods.
Standard assay conditions for the determination of kinetic constants used a fluorogenic peptide substrate, typically H-D-Ala-Leu-Lys-AMC, and were determined in either 100 mM Mes/Tris, pH 7.0 containing 1 mM EDTA and 10 mM 2-mercaptoethanol or 100 mM Na phosphate, imM EDTA, 0.1% PEG4000 pH 6.5 or 100 mM Na acetate, pH 5.5 containing 5 mM EDTA and 20 mM cysteine, in each case optionally with […] as stabiliser. The enzyme concentration used was 5 nM. The stock substrate solution was prepared at 10 mM in DMSO. Screens were carried out at a fixed substrate concentration of 60 μM and detailed kinetic studies with doubling dilutions of substrate from 250 μM. The total DMSO concentration in the assay was kept below 3%. All assays were conducted at ambient temperature. Product fluorescence (excitation at 390 nm, emission at 460 nm) was monitored with a Labsystems Fluoroskan Ascent fluorescent plate reader. Product progress curves were generated over 15 minutes following generation of AMC product.
(§1) Potential inhibitors are screened using the above assay with variable concentrations of test compound. Reactions were initiated by addition of enzyme to buffered solutions of substrate and inhibitor. Ki values were calculated according to equation 1
(§2) [formula] where v0 is the velocity of the reaction, V is the maximal velocity, S is the concentration of substrate with Michaelis constant of KM, and/is the concentration of inhibitor.

[2] = target: T2, baculovirus-expressed human cathepsin S (Homo sapiens, UniProt P25774); assay: Cathepsin S Ki determination; type: biochemical
T2 construct: made in house
Description: 280 μl/well of 12.5% DMSO are added to rows B-H of two columns of a 96 deep well polypropylene plate. 70 μl/well of substrate is added to row A. 2×250 μl/well of assay buffer (100 mM Na phosphate, 100 mM NaCl, pH 6.5) is added to row A, mixed, and double diluted down the plate to row H. 100 μl/well of assay buffer is added to columns 2-5 and 7-12 of 4 rows of a 96 well V bottom polypropylene plate. 200 μl/well of assay buffer is added to columns 1 and 6. […] Add 90 μl assay buffer containing 1 mM DTT and 2 nM cathepsin S to each well of rows B-H and 180 μl to row A. Mix row A using a multichannel pipette and double dilute to row G. Mix row H and read in the fluorescent spectrophotometer. […] The second test compound is added to column 6 of the top row, the third to column 1 of the second row etc. Add 1 μl of comparator to column 6 of the bottom row. Mix column 1 and double dilute to column 5. Mix column 6 and double dilute to column 10. Using an 8-channel multistepping pipette set to 5×10 μl, distribute 10 μl/well of substrate to the 384 well assay plate. Distribute the first column of the substrate dilution plate to all columns of the assay plate starting at row A. The tip spacing of the multichannel pipette will correctly skip alternate rows. Distribute the second column to all columns starting at row B. Using a 12-channel multistepping pipette set to 4×10 μl, distribute 10 μl/well of inhibitor to the 384 well assay plate. Distribute the first row of the inhibitor dilution plate to alternate rows of the assay plate starting at A1. The tip spacing of the multichannel pipette will correctly skip alternate columns. Similarly, distribute the second, third and fourth rows to alternate rows and columns starting at A2, B1 and B2 respectively. Mix 20 ml assay buffer and 20 μl 1M DTT. Add sufficient cathepsin S to give 2 nM final concentration. Using the a distributor such as a Multidrop 384, add 30 μl/well to all wells of the assay plate and read in fluorescent spectrophotomoter such as an Ascent. Fluorescent readings, (excitation and emission wavelengths 390 nm and 460 nm respectively, set using bandpass filters) reflecting the extent of enzyme cleavage of the fluorescent substrate, notwithstanding the inhibitor, are linear rate fitted for each well. Fitted rates for all wells for each inhibitor are fitted to the competitive inhibition equation using SigmaPlot 2000 to determine V, Km and Ki values. Potential inhibitors are screened using the above assay with variable concentrations of test compound. Reactions were initiated by addition of enzyme to buffered solutions of substrate and inhibitor. Ki values were calculated according to equation 1 [formula] where v0 is the velocity of the reaction, V is the maximal velocity, S is the concentration of substrate with Michaelis constant of KM, and/is the concentration of inhibitor.

human cathepsin L = human cathepsin L (Homo sapiens, UniProt P07711); assay: Cathepsin L Ki; type: biochemical
Description: The procedure above with the following amendments is used for the determination of Ki for cathepsin L.
The enzyme is commercially available human cathepsin L (for example Calbiochem). The substrate is H-D-Val-Leu-Lys-AMC available from Bahcem. The assay buffer is 100 mM sodium acetate 1 mM EDTA, pH5.5) The DMSO stock (10 mM in 100% DMSO) is diluted to 10% in assay buffer. Enzyme is prepared at 5 nM concentration in assay buffer plus 1 mM dithiothreitol just before use. 2 ul of 10 mM inhibitor made up in 100% DMSO is dispensed into row A. 10 ul of 50 uM substrate (=1/200 dilution of 10 mM stock in DMSO, diluted in assay buffer)
as §1, §2

[3] = Metabolic stability in human hepatic cytosol assay; type: in vitro ADME
Description: Compounds of the invention and the indicated comparative examples were tested for metabolic stability in a cytosol assay in which the compounds were incubated with commercially available human hepatic cytosol fractions and the disappearance of the compound monitored by HPLC or LC/MS. Pooled human liver cytosol fractions are less likely to represent outlier individuals than blood from a single individual and can be stored frozen, unlike whole blood. The cytosol assay thus provides a consistent assay testbed as a guide to the stability of a compound in the in vivo environment, such as when exposed to whole blood.
In short, test compounds (2 μM) are incubated in pooled human liver cytosol (Xenotech LLC Lenexa US, 1 mg/mL protein in 0.1M phosphate buffer, pH 7.4) at 37° centigrade over a one hour period. The incubations are initiated by the addition of 1 mM NADPH co-factor. Timed sub-samples were taken at 0, 20, 40 and 60 minutes and “crash precipitated” by the addition of 3 volumes of ice-cold acetonitrile. The samples were centrifuged at reduced temperature and the supernatants were separated and analyzed by LC-MS-MS.

[4] = Caco-2 permeability (Papp); type: in vitro ADME; conditions: human; Caco-2 assay, standard concentration 10 μM
Description: The transport plate comprises 3 rows of 4 wells.
Determination of the cumulative fraction absorbed, FAcum, versus time. FAcum is calculated from: […]
A linear relationship should be obtained.

[5] = typical reference compounds (markers) for the Caco-2 assay; cited from earlier work
[6] = 2 μM in pooled human liver cytosol, 1 mg/mL protein, pH 7.4, 37°, 1 mM NADPH
[7] = representative values from specific batches of compound/enzyme/assay occasion

Chain of human cathepsin L (P07711 114-333): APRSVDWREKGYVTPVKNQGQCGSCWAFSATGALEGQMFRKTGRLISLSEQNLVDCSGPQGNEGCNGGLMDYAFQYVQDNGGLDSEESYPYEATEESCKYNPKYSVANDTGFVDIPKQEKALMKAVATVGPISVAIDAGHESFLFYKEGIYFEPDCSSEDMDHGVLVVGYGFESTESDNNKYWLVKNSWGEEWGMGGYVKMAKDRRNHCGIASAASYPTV
T2 sequence (P25774 115-331): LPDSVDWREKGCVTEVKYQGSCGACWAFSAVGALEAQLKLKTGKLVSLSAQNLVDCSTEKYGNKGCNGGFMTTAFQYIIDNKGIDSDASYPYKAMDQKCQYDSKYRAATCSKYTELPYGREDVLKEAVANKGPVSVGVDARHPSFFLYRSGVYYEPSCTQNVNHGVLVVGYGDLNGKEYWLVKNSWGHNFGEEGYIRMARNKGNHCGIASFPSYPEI

Row | Structure (SMILES) | Ki ([1]; Table 1, class symbols) [nM] | Ki ([2]; Table 1, class symbols) [nM] | Ki (human cathepsin L; Table 1, class symbols) [nM] | half-life at 2 μM [3, 6] [h] | Ki [1, 7] [nM] | Ki [2, 7] [nM] | Ki (human cathepsin L; [7]) [nM] | other results
1 | CC(C)C[C@H](NC(c1ccc(-c2ccc(S(C)(=O)=O)cc2)cc1)C(F)(F)F)C(=O)N1C[C@@H](Cl)[C@H]2OCC(=O)[C@H]21 (stereo in doubt) [Example 13, 6-Chloro-4-{4-methyl-2-[2,2,2-trifluoro-1-(4′-methanesulfonyl-biphenyl-4-yl)-ethylamino]-pentanoyl}-tetrahydro-furo[3,2-b]pyrrol-3-one] | < 50 | > 10000 | 1000 to 5000 | – | – | – | – | –
2 | CC(C)C[C@H](NC(=O)c1ccc(-c2csc(N3CCN(C)CC3)n2)cc1)C(=O)N1C[C@H](Cl)[C@H]2OCC(=O)[C@H]21 [Comparative Example 1, reference compound] | – | – | – | 0.4 | – | – | – | –
3 | Cc1sc(N2CCN(C)CC2)nc1-c1ccc(C(=O)N[C@@H](CC(C)C)C(=O)N2CC[C@H]3OCC(=O)[C@H]32)cc1 [Comparative Example 2, reference compound] | – | – | – | 1.2 | – | – | – | cytosol half life ([3]; human liver cytosol): a little over an hour
4 | Cc1sc(N2CCN(C)CC2)nc1-c1ccc(C(=O)N[C@@H](CC(C)C)C(=O)N2C[C@H](F)[C@H]3OCC(=O)[C@H]32)cc1 [Comparative Example 3, reference compound] | – | – | – | 1.67 to 2.5 | – | – | – | –
5 | Cc1sc(N2CCN(C)CC2)nc1-c1ccc(C(=O)N[C@@H](CC(C)C)C(=O)N2C[C@@H](Cl)[C@H]3OCC(=O)[C@H]32)cc1 [Example 5, N-[1-(6-chloro-3-oxo-hexahydro-furo[3,2-b]pyrrol-4-carbonyl)-3-methyl-butyl]-4-[5-methyl-2-(4-methyl-piperazin-1-yl)-thiazol-4-yl]-benzamide] | < 50 | 5000 to 10000 | 501 to 1000 | 3.3 | 1.6 | 7500 | 880 | –
6 | CC(C)C[C@H](NC(=O)c1ccc(-c2csc(N3CCN(C)CC3)n2)cc1)C(=O)N1C[C@@H](Cl)[C@H]2OCC(=O)[C@H]21 [Example 6, N—[(S)-1-((3aS,6R,6aS)-6-chloro-3-oxo-hexahydro-furo[3,2-b]pyrrole-4-carbonyl)-3-methyl-butyl]-4-[2-(4-methyl-piperazin-1-yl)-thiazol-4-yl]benzamide] | < 50 | 1000 to 5000 | 501 to 1000 | – | 1.5 | 4000 | 890 | t1/2 minutes [3, 6]: >5 h; half-life at 2 μM ([3]; pooled human liver cytosol, pH 7.4, human liver cytosol, read-out: cytosol half life): > 5 h
7 | CN1CCN(c2nc(-c3ccc(C(=O)N[C@H](C(=O)N4C[C@@H](Cl)[C@H]5OCC(=O)[C@H]54)C4CCCCC4)cc3)cs2)CC1 [Example 7, N-[2-((3aS,6R,6aS)-6-Chloro-3-oxo-hexahydro-furo[3,2-b]pyrrole-4-yl)-1-S-cyclohexyl-2-oxo-ethyl]-4-[2-(4-methyl-piperazin-1-yl)-thiazol-4-yl]-benzamide] | < 50 | 1000 to 5000 | 1000 to 5000 | – | 4.2 | 1700 | 1200 | –
8 | CN1CCN(c2nc(-c3ccc(C(=O)N[C@@H](CC(C)(C)F)C(=O)N4C[C@@H](Cl)[C@H]5OCC(=O)[C@H]54)cc3)cs2)CC1 [Example 8, N—[(S)-1-((3aS,6R,6aS)-6-chloro-3-oxo-hexahydro-furo[3,2-b]pyrrole-4-carbonyl)-3-fluoro-3-methyl-butyl]-4-[2-(4-methyl-piperazin-1-yl)-thiazol-4-yl]benzamide] | < 50 | > 10000 | 1000 to 5000 | – | 3.3 | 13000 | 2900 | –
9 | CC(C)C[C@H](NC(=O)c1ccc(-c2csc(N3CCN(C)CC3)n2)c(F)c1)C(=O)N1C[C@@H](Cl)[C@H]2OCC(=O)[C@H]21 [Example 10, N—[(S)-1-((3aS,6R,6aS)-6-Chloro-3-oxo-hexahydro-furo[3,2-b]pyrrole-4-carbonyl)-3-methyl-butyl]-3-fluoro-4-[2-(4-methyl-piperazin-1-yl)-thiazol-4-yl]-benzamide] | < 50 | 1000 to 5000 | 50 to 500 | – | 3.4 | 4700 | 490 | Papp at 120 min, 10 μM [4]: 5.2 ×10⁻⁶ cm/s
10 | CC(C)C[C@H](NC(=O)c1ccc(-c2csc(N3CCN(C)CC3)n2)c(F)c1)C(=O)N1C[C@@H](Cl)[C@H]2OCC(=O)[C@H]21 [Example 11] | – | – | – | 3 | – | – | – | –
11 | N[C@@H](Cc1ccccc1)C(=O)O [L-Phenylalanine] | – | – | – | – | – | – | – | % absorption in man [5]: 100%
12 | OC[C@@H](O)[C@@H](O)[C@H](O)[C@H](O)CO [Mannitol] | – | – | – | – | – | – | – | % absorption in man [5]: 16%
13 | CN(Cc1cnc2nc(N)nc(N)c2n1)c1ccc(C(=O)N[C@@H](CCC(=O)O)C(=O)O)cc1 [Methotrexate] | – | – | – | – | – | – | – | % absorption in man [5]: 20%
